US8889714B2, “3,4-substituted piperidine derivatives as renin inhibitors” (Actelion Pharmaceuticals Ltd., priority 2008, dated 2014)
Read-outs that look alike come from different tables or passages of the source.

Experiments:
[1] = target: T1, recombinant renin in human plasma (Homo sapiens, UniProt P00797); assay: Inhibition of renin in human plasma; format: biochemical; conditions: human EDTA plasma, 1 nM recombinant renin added, 37° C., 1 hour
T1 construct: purchased Proteos
T1 sequence (P00797 67-406): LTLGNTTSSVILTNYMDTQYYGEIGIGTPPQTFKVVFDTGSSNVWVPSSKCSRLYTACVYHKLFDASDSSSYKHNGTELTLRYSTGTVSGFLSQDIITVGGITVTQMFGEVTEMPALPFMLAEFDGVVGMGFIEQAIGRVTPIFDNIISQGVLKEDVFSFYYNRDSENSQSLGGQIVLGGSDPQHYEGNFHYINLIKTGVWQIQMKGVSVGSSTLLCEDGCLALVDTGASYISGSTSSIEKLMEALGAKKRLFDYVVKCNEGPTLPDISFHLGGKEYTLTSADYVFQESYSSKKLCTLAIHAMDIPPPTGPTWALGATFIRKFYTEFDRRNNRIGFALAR
Procedure: Human EDTA-collected plasma is rapidly thawed in warm water and centrifuged at 2900 g for 15 minutes at 4° C. The supernatant is collected and recombinant renin (Proteos) is added at a final concentration of 1 nM. […] The plate is incubated at 37° C. for 1 hour. […] Background fluorescence at t=0 is subtracted from the measurement at t=1 hour. Inhibitory activity of the compounds is expressed as IC50.

[2] = target: T2, Human recombinant renin (Homo sapiens, UniProt P00797); assay: Inhibition of human recombinant renin (buffer); format: biochemical; conditions: 100 pM renin, 50 mM MOPS pH 7.4, 37° C., 3 hours
T2 construct: purchased Proteos
T2 sequence (P00797 67-406): T1 sequence (P00797 67-406)
Procedure: Fluorescence is measured at times 0 and 3 hours with a SpectraMax Gemini EM reader set at an excitation wavelength of 328 nm and at an emission wavelength of 388 nm. Background fluorescence at t=0 is subtracted from the measurement at t=3 hours. Inhibitory activity of the compounds is expressed as IC50.

[3] = read-out: Human Renin IC50 (plasma)
[4] = read-out: Human Renin IC50 (buffer)

Structure (SMILES)	IC50 [1, 3] [nM]	IC50 [2, 4] [nM]	IC50 ([1]; Human Renin IC50 (plasma)) [nM]	IC50 ([2]; Human Renin IC50 (buffer)) [nM]
COCCNc1cc(CN(C(=O)[C@@H]2CNCC[C@H]2c2ccn(C)c(=O)c2)C2CC2)c2ccccc2c1 (relative stereo) [Example 36, trans-N-Cyclopropyl-4-(1-methyl-2-oxo-1,2-dihydro-4-pyridinyl)-N-[(3-{[2-(methyloxy)ethyl]amino}-1-naphthalenyl)methyl]-3-piperidinecarboxamide]	–	–	2.4	5.3
Cn1ccc([C@@H]2CCNC[C@H]2C(=O)N(Cc2cn(Cc3cccc(F)c3)c3cccc(Br)c23)C2CC2)cc1=O (relative stereo) [Example 73, trans-N-({4-Bromo-1-[(3-fluorophenyl)methyl]-1H-indol-3-yl}methyl)-N-cyclopropyl-4-(1-methyl-2-oxo-1,2-dihydro-4-pyridinyl)-3-piperidinecarboxamide]	0.5	< 0.06	–	–
Cn1ccc([C@@H]2CCNC[C@H]2C(=O)N(Cc2cn(Cc3cccc(F)c3)c3cccc(F)c23)C2CC2)cc1=O (relative stereo) [Example 68, trans-N-Cyclopropyl-N-({4-fluoro-1-[(3-fluorophenyl)methyl]-1H-indol-3-yl]methyl}-4-(1-methyl-2-oxo-1,2-dihydro-4-pyridinyl)-3-piperidinecarboxamide]	0.6	0.06	–	–
COCCCc1cc(CN(C(=O)[C@@H]2CNCC[C@H]2c2ccn(C)c(=O)c2)C2CC2)c2ccccc2n1 (relative stereo) [Example 25, trans-N-Cyclopropyl-4-(1-methyl-2-oxo-1,2-dihydro-4-pyridinyl)-N-({2-[3-(methyloxy)propyl]-4-quinolinyl}methyl)-3-piperidinecarboxamide]	3	1.4	–	–
Cn1ccc([C@@H]2CCNC[C@H]2C(=O)N(Cc2c[nH]c3cccc(F)c23)C2CC2)cc1=O (relative stereo) [Example 75, trans-N-Cyclopropyl-N-[(4-fluoro-1H-indol-3-yl)methyl]-4-(1-methyl-2-oxo-1,2-dihydro-4-pyridinyl)-3-piperidinecarboxamide]	8.4	12.7	–	–
COCCCc1cc(CN(C(=O)[C@@H]2CNCC[C@H]2c2cc(=O)n(C)c(C)c2C)C2CC2)cc(OCCOC)c1 (relative stereo) [Example 13, trans-N-Cyclopropyl-N-({3-{[2-(methyloxy)ethyl]oxy}-5-[3-(methyloxy)propyl]phenyl}methyl)-4-(1,5,6-trimethyl-2-oxo-1,2-dihydro-4-pyridinyl)-3-piperidinecarboxamide]	80	25	–	–
COCCCn1cc(CN(C(=O)[C@@H]2CNCC[C@H]2c2ccn(C)c(=O)c2)C2CC2)c2c(F)cccc21 (relative stereo) [Example 69, trans-N-Cyclopropyl-N-({4-fluoro-1-[3-(methyloxy)propyl]-1H-indol-3-yl}methyl)-4-(1-methyl-2-oxo-1,2-dihydro-4-pyridinyl)-3-piperidinecarboxamide]	0.9	0.3	–	–
Cn1ccc(C2CCNC[C@@H]2C(=O)N(Cc2cc(CCC#N)cc(Cl)c2Cl)C2CC2)cc1=O (stereo in doubt) [Example 30, trans-N-Cyclopropyl-N-{[2,3-dichloro-5-(2-cyanoethyl)phenyl]methyl}-4-(1-methyl-2-oxo-1,2-dihydro-4-pyridinyl)-3-piperidinecarboxamide]	17	8.4	–	–
COCCCc1cc(Cl)c(Cl)c(CN(C(=O)[C@@H]2CNCC[C@H]2c2ccn(C)c(=O)c2)C2CC2)c1 (relative stereo) [Example 5, trans-N-Cyclopropyl-N-({2,3-dichloro-5-[3-(methyloxy)propyl]phenyl}methyl)-4-(1-methyl-2-oxo-1,2-dihydro-4-pyridinyl)-3-piperidinecarboxamide]	1.3	0.3	–	–
COCCCc1cc(CN(C(=O)[C@@H]2CNCC[C@H]2c2ccn(C)c(=O)c2)C2CC2)cc(-c2ccccc2)c1 (relative stereo) [Example 33, trans-N-Cyclopropyl-4-(1-methyl-2-oxo-1,2-dihydro-4-pyridinyl)-N-({5-[3-(methyloxy)propyl]-3-biphenylyl}methyl)-3-piperidinecarboxamide]	81	15	–	–
Cn1ccc([C@@H]2CCNC[C@H]2C(=O)N(Cc2cn(Cc3ccncc3)c3cccc(F)c23)C2CC2)cc1=O (relative stereo) [Example 77, trans-N-Cyclopropyl-N-{[4-fluoro-1-(4-pyridinylmethyl)-1H-indol-3-yl]methyl}-4-(1-methyl-2-oxo-1,2-dihydro-4-pyridinyl)-3-piperidinecarboxamide]	0.5	0.2	–	–
COCCCc1cc(CN(C(=O)[C@@H]2CNCC[C@H]2c2ccn(C)c(=O)c2)C2CC2)c2ccccc2c1 (relative stereo) [Example 18, trans-N-Cyclopropyl-4-(1-methyl-2-oxo-1,2-dihydro-4-pyridinyl)-N-({3-[3-(methyloxy)propyl]-1-naphthalenyl}methyl)-3-piperidinecarboxamide]	1.8	0.4	–	–

More lines, now with the values ahead:

IC50 [1, 3] [nM]	IC50 [2, 4] [nM]	IC50 ([1]; Human Renin IC50 (plasma)) [nM]	IC50 ([2]; Human Renin IC50 (buffer)) [nM]	Structure (SMILES)
3.2	1.3	–	–	COCCc1ccc(Cl)c(CN(C(=O)[C@H]2CNCC[C@]2(OC)c2ccn(C)c(=O)c2)C2CC2)c1 (relative stereo) [Example 109]
75	58	–	–	COCCCn1cc(CN(C(=O)[C@@H]2CNCC[C@H]2c2ccn(C)c(=O)c2)C2CC2)c(=O)n(CCCOC)c1=O (relative stereo) [Example 79, trans-N-({1,3-Bis[3-(methyloxy)propyl]-2,4-dioxo-1,2,3,4-tetrahydro-5-pyrimidinyl}methyl)-N-cyclopropyl-4-(1-methyl-2-oxo-1,2-dihydro-4-pyridinyl)-3-piperidinecarboxamide]
1.4	0.3	–	–	Cc1c(Br)cc(CN(C(=O)[C@@H]2CNCC[C@H]2c2ccn(C)c(=O)c2)C2CC2)cc1CCCOC(F)F (relative stereo) [Example 103, trans-N-{3-Bromo-5-[3-(difluoromethoxy)propyl]-4-methylbenzyl}-N-cyclopropyl-4-(1-methyl-2-oxo-1,2-dihydro-4-pyridinyl)-3-piperidinecarboxamide]
1.3	0.9	–	–	COCCCc1cc(CN(C(=O)[C@H]2CNCC[C@@H]2c2ccn(C)c(=O)c2)C2CC2)cc(Br)c1C (relative stereo) [Example 85, trans-N-({3-Bromo-4-methyl-5-[3-(methyloxy)propyl]phenyl}methyl)-N-cyclopropyl-4-(1-methyl-2-oxo-1,2-dihydro-4-pyridinyl)-3-piperidinecarboxamide]
21	7.5	–	–	Cc1cc(Cc2ccccc2)cc(CN(C(=O)[C@@H]2CNCC[C@H]2c2ccn(C)c(=O)c2)C2CC2)c1 (relative stereo) [Example 104, trans-N-(3-Benzyl-5-methylbenzyl)-N-cyclopropyl-4-(1-methyl-2-oxo-1,2-dihydro-4-pyridinyl)-3-piperidinecarboxamide]
12.3	4.7	–	–	COCCCc1ccc(SC)c(CN(C(=O)[C@H]2CNCC[C@@H]2c2ccn(C)c(=O)c2)C2CC2)c1 (relative stereo) [Example 84, trans-N-Cyclopropyl-4-(1-methyl-2-oxo-1,2-dihydro-4-pyridinyl)-N-{[5-[3-(methyloxy)propyl]-2-(methylthio)phenyl]methyl}-3-piperidinecarboxamide]
0.5	0.2	–	–	COCCCc1cc(CCCOC)c(Cl)c(CN(C(=O)[C@H]2CNCC[C@@H]2c2ccn(C)c(=O)c2)C2CC2)c1 (relative stereo) [Example 89, trans-N-[2-Chloro-3,5-bis(3-methoxypropyl)benzyl]-N-cyclopropyl-4-(1-methyl-2-oxo-1,2-dihydro-4-pyridinyl)-3-piperidinecarboxamide]
1.2	0.3	–	–	COCCCc1ccc2c(c1)C(N(C(=O)[C@H]1CNCCC1c1ccn(C)c(=O)c1)C1CC1)CCC2 (single isomer, unassigned) [Example 100 Diastereomer A, trans-N-Cyclopropyl-N-[7-(3-methoxypropyl)-1,2,3,4-tetrahydro-1-naphthalenyl]-4-(1-methyl-2-oxo-1,2-dihydro-4-pyridinyl)-3-piperidinecarboxamide]
16.2	3.6	–	–	COCCCc1ccc2c(c1)C(N(C(=O)[C@H]1CNCCC1c1ccn(C)c(=O)c1)C1CC1)CCC2 (single isomer, unassigned) [Example 100 Diastereomer B, trans-N-Cyclopropyl-N-[7-(3-methoxypropyl)-1,2,3,4-tetrahydro-1-naphthalenyl]-4-(1-methyl-2-oxo-1,2-dihydro-4-pyridinyl)-3-piperidinecarboxamide]
